Test results as given in patent US20170086461A1, “SYNERGISTIC ANTIMICROBIAL COMPOSITION” (Dow Global Technologies LLC, priority 2015, published 2017).

Test system: Pseudomonas aeruginosa DSM # 939
Test: Minimum Inhibitory Concentration (MIC) test with synergy index (Kull method)
Format: cell-based
Details: single biocide acting alone; TSB broth, 30° C., 48 hours, ~1×10^6 CFU/ml
Procedure: The synergism of the biocides combination of the present invention was determined using the method described by Kull, F.C., et. al in Applied Microbiology 9:538-541 (1961).
The formula to calculate the synergy index (SI) is
• QA=concentration of compound A in ppm, acting alone produced an end point (growth/no growth) • Qa=concentration of compound A in ppm, in the mixture, which produced an end point (growth/no growth) • QB=concentration of compound B in ppm, acting alone produced an end point (growth/no growth) • Qb=concentration of compound B in ppm, in the mixture, which produced an end point (growth/no growth)
The Minimum Inhibitory Test (MIC) is designed to evaluate the lowest concentration of a biocide, biocide blend or biocide combination to prevent bacteria growing in a defined broth.
Minimum Inhibitory Concentration (MIC) Testing Protocol • 1. […]
The culture was maintained as a glycerol stock at −80° C. in cryovials. […] Reading of the results was carried out by measuring absorbance at 600 nm for each sample at the beginning of the test (tzero) and after incubation (tendpoint). tendpoint was chosen at 48 hours for bacteria. The difference in absorbance between tendpoint and tzero was used to assign a score (Δ>0.2 confirms growth while Δ≦0.2 confirms no growth) from which the MIC values were calculated.

Structure (SMILES) | Minimum Concentration (active ppm) to Inhibit Growth, active alone [ppm]
Cn1sc2ccccc2c1=O [MBIT, 2-methyl-1,2-benzothiazol-3(2H)-one] | 62
Cc1cc(O)ccc1Cl [Chlorocresol, 4-chloro-3-methylphenol] | 1539
